Laboratory results published in patent publication US9937235B2, “Lipidated peptides as anti-obesity agents” (USTAV ORGANICKE CHEMIE A BIOCHEMIE AKADEMIE VED CR, V.V.I, priority 2012, dated 2018).
Each block holds one molecule with its values, some of them ahead of it. Where a SMILES comes first, the peptide text is derived from it. Where no end group is shown, it is not given here. [ ]: non-standard residue; d: D form. The star is where a group is joined. Tridecanoyl = CCCCCCCCCCCCC(=O)*; Myristoyl = CCCCCCCCCCCCCC(=O)*; Lauroyl = CCCCCCCCCCCC(=O)*; Nle = CCCC[C@H](N)C(=O)O; Dap = NC[C@H](N)C(=O)O

How the values were obtained:
fasted C57BL/6 mice [1] = test: Food intake in fasted mice after SC administration; assay type: in vivo, mouse; conditions: for food intake / % control: SC administration, 5 mg/kg; for % control: food intake vs saline
Procedure, shortened: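 Male C57BL/6 mice, food-deprived 17 h, received saline, PrRP or lipidated analogs either SC at 1-10 mg/kg or ICV into the third ventricle at 4 nmol/mouse.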

[2] = target: T1, human PrRP receptor, GPR10 (Homo sapiens, UniProt P49683); test: Competitive binding to CHO cells with transfected human GPR10; conditions: CHO cells with transfected human GPR10, human ^125I—PrRP31
T1 construct: host or cells: CHO cells
T1 sequence (P49683 1-370): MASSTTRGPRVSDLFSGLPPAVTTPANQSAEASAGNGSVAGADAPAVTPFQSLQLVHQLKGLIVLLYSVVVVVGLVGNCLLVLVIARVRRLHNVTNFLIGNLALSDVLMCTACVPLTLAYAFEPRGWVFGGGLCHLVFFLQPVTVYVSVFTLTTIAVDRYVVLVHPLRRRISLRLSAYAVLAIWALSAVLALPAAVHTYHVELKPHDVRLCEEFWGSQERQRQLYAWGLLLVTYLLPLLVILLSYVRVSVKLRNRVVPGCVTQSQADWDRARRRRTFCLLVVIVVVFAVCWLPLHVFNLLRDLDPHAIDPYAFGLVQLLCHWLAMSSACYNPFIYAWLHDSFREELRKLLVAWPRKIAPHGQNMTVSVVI
Protocol: Competitive binding experiments were performed according to Motulsky and Neubig (Motulsky, A., et al., “Analyzing radioligand binding data,” Curr Protoc Neurosci, Chapter 7, Unit 7.5, 2002).
CHO cells with transfected human PrRP receptor, GPR10 (Perkin Elmer, USA) were grown on 24-well plates coated with polyethyleneimine. The cells were grown to the optimal density of 40-80 thousand cells per well. The following agents were used for the experiment: binding buffer (25 mmol·l^−1 Tris, pH 7.4; 118 mmol·l^−1 NaCl, 10 mmol·l^−1 MgCl2, 1 mmol·l^−1 CaCl2, 5.5 mmol·l^−1 glucose, 0.5 mg/ml BSA), unlabelled analogs of PrRP of final concentration within 10^−11 to 10^−4 mol·l^−1, and human ^125I—PrRP31 of final concentration of 5×10^−11 mol·l^−1.
(§1) Plates were incubated for 60 minutes at room temperature. After incubation, the cells were solubilized in 0.1 mol/l solution of NaOH and the radioactivity bound to the cells was counted using a γ-counter. The experiments were performed in duplicate and repeated at least three times.
For evaluation of competitive binding experiments, the program Graph Pad Prism Software (San Diego, Calif., USA) was used. A method of nonlinear regression assuming one-site binding was used.

DIO C57BL/6 male mice = test: 14-day SC administration in diet-induced obese (DIO) mice; assay type: in vivo, mouse
Protocol: Inbred C57BL/6 male mice (AnLab, Prague, Czech Republic) were housed at a temperature of 23° C. under a daily cycle of 12 hours light and dark (light from 6:00 a.m.) with free access to water and food pellets (St-1, Mlýn Kocanda, Jesenice, Czech Republic).
At 8 weeks of age, mice were divided into a standard (St) diet-fed group (the energy content of the St-1 diet was 3.4 kcal/g, containing 25, 9, and 66% of calories from protein, fat, and carbohydrate, respectively (St-1, Mlýn Kocanda, Jesenice, Czech Republic)) and a high fat (HF) diet-fed group (the energy content of the HF diet was 5.3 kcal/g, containing 13, 60, and 27% of calories from protein, fat, and carbohydrate, respectively). […] Food intake and body weight were monitored weekly from 9 to 20 weeks of age. Mice resistant to the HF diet were withdrawn from the experiment (approximately 10% of mice).
At the age of 20 weeks, mice were placed into separate cages with free access to food and water. The following week, mice were subjected to a 14-day food intake experiment. They were injected with palm-PrRP31 or myr-PrRP20 dissolved in saline at doses of 5 mg/kg (n=10) or saline twice a day (at 8:00 and 18:00) for 14 days. Consumption of the St or HF diet and the weight of the mice were simultaneously followed.
After 14 days of treatment, mice were fasted overnight and sacrificed the following morning. Their blood sera were isolated, and the white adipose tissue (subcutaneous, abdominal, and gonadal), and the liver of all mice were dissected, weighed, and stored at −70° C. Fat to body weight ratio was calculated as a ratio of adipose tissue weight to body weight.
Serum insulin and leptin concentrations were measured by RIA assays. Serum glucose levels were measured using a Glucocard glucometer (Arkray, Kyoto, Japan). Serum triglyceride levels were measured by quantitative enzymatic reactions (Sigma, St. Louis, USA).
They were analyzed by a one-way ANOVA followed by a Dunnett post-hoc test (metabolic parameters, behavioral study) or two-way ANOVA followed by a Bonferroni post-hoc test (body weight evaluation) using Graph-Pad Software (San Diego, Calif., USA). P<0.05 was considered statistically significant.

fasted C57BL/6 mice [3] = test: Food intake in fasted mice after ICV administration; assay type: in vivo; conditions: 4 nmol/mouse; for % control: food intake vs saline
Protocol: Male C57BL/6 mice (An Lab, Prague 4) were bred in the accredited animal facility in the Institute of Organic Chemistry and Biochemistry, Czech Academy of Sciences, Prague, at the Institute of Molecular Genetics, Prague 4, at the temperature of 22±2° C. with access to food and water ad libitum. The day/night cycle was 12/12 hours (light turned on at 6:00 am). Animals were treated according to the Animal Protection Act (Act No. 246/1992). The males were fed standard chow diet St-1 (Mlýn Kocanda, Praha, Czech Republic) which contained 66% saccharides, 25% proteins and 9% lipids with a caloric value of 3.4 kcal/g.
The food was withdrawn 17 hours prior to injection of lipidated peptide and free access to water was maintained. The administration of saline, PrRP or lipidated analogs was performed either by SC injection at doses of 1-10 mg/kg (volume 0.2 ml/mouse), or by ICV using infusion pump (cannulae were inserted into the third brain ventricle 4 days before the experiment following the procedure of Maixnerová et al. (Maixnerová et al., 2011)). The single dose of peptide was 4 nmol/mouse (5 μl/mouse).
Fifteen minutes after the lipidated peptide administration, the mice were given pre-weighed food. The food was then weighed every 30 minutes for 5-10 hours. The administration of every dose was performed at least twice and one group of mice consisted of at least 6 mice. The results were presented as % of food intake as compared with the control group injected with saline.
Statistical evaluation was performed using program Graph-Pad Prism Software (San Diego, Calif., USA), and the one-way ANOVA with a subsequent Dunnettovým post-hoc test. The difference in food intake between mice injected with saline and mice injected with the examined peptide were considered statistically significant at P<0.05.

[4] = target: T2, rat PrRP receptor (GPR10) in RC-4B/C cells (Rattus norvegicus, UniProt Q64121); test: Competitive binding to rat pituitary RC-4B/C cells; conditions: ^125I-rat PrRP31, RC-4B/C cells
T2 construct: host or cells: RC-4B/C rat pituitary cell line
T2 sequence (Q64121 1-370): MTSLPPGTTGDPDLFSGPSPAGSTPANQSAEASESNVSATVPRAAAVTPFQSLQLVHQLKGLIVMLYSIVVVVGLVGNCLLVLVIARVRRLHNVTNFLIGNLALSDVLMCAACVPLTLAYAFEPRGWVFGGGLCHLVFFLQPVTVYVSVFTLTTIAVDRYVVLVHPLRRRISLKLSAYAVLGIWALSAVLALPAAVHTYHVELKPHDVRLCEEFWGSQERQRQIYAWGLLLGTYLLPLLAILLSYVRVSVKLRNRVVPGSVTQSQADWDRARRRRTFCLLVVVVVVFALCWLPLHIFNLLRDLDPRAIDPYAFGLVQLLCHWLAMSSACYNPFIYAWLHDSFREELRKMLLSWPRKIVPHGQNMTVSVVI

[5] = test system: MAPK/ERK1/2 signaling pathway in RC-4B/C cells; test: MAPK/ERK1/2 signaling in RC-4B/C cells (Western blot); assay type: cell-based, rat; conditions: 10^−6 mol·l^−1, 5 minute incubation
[6] = target: T3, rat PrRP receptor in RC-4B/C cells (rat, UniProt Q64121 1-370); test: competition with 125I-rat PrRP31 on RC-4B/C cells; Ki by Cheng-Prusoff
T3 construct: whole, on cells; also called the rat receptor; GPR10
T3 sequence (looked up): T2 sequence (Q64121 1-370)
Protocol: The rat pituitary cell line RC-4B/C (ATCC, Manassas, USA) was grown on 24-well plates which had their bottom coated with polyethyleneimine. The cells were grown to the optimal density of 300-450 thousand per well.
as §1

[7] = 5 mg/kg SC twice a day, 14 days, 17 h fasted DIO male mice
[8] = serum, 5 mg/kg SC twice a day, 14 days, 17 h fasted DIO male mice

Ki [2]: 2.41 ± 0.26 nM
Molecule: CCCCCCCCCCCC(=O)N[C@H](C(=O)N1CCC[C@H]1C(=O)N[C@@H](CC(=O)O)C(=O)N[C@H](C(=O)N[C@@H](CC(N)=O)C(=O)N1CCC[C@H]1C(=O)N[C@@H](C)C(=O)N[C@@H](Cc1c[nH]c2ccccc12)C(=O)N[C@@H](Cc1ccc(O)cc1)C(=O)N[C@@H](C)C(=O)N[C@@H](CO)C(=O)N[C@@H](CCCNC(=N)N)C(=O)NCC(=O)N[C@H](C(=O)N[C@@H](CCCNC(=N)N)C(=O)N1CCC[C@H]1C(=O)N[C@H](C(=O)NCC(=O)N[C@@H](CCCNC(=N)N)C(=O)N[C@@H](Cc1ccccc1)C(N)=O)C(C)C)[C@@H](C)CC)[C@@H](C)CC)[C@@H](C)O [Analog 54] (Lauroyl-TPDINPAWYASRGIRPVGRF-NH2)
Food intake in mice (5 mg/kg SC) % saline-treated group (45 min) (fasted C57BL/6 mice [1]; fasted C57BL/6 mice, 5 mg/kg SC, 45 min): 85%

Molecule: Myr-PrRP20: myristoylated PrRP20 given to DIO mice; analog number (rat 10 or human 13/55) not stated (Myristoyl-TPDINPAWYASRGIRPVGRF-NH2; ends and bridges not checked; UniProt P81277 34-53, looked up)
Fat/body weight [%] (DIO C57BL/6 male mice; [7]): 15.30 ± 0.42%
Liver/body weight [%] (DIO C57BL/6 male mice; [7]): 3.60 ± 0.18 %
Body weight of DIO mice (DIO C57BL/6 male mice; 5 mg/kg SC twice per day for 14 days, FIG. 9): significantly decreased
Glucose (DIO C57BL/6 male mice; [8]): 7.52 ± 0.16 mmol/L
Insulin (DIO C57BL/6 male mice; [8]): 3.54 ± 0.47 ng/mL
Leptin (DIO C57BL/6 male mice; [8]): 39.56 ± 3.47 ng/mL
Triglycerides (DIO C57BL/6 male mice; [8]): 68.71 ± 4.16 mg/dL

% of PrRP31 binding [4]: 967%
Molecule: CCCCCCCCCCCCC(=O)NC[C@H](N)C(=O)N[C@@H](CCCNC(=N)N)C(=O)N[C@@H](C)C(=O)N[C@@H](Cc1c[nH]cn1)C(=O)N[C@@H](CCC(N)=O)C(=O)N[C@@H](Cc1c[nH]cn1)C(=O)N[C@@H](CO)C(=O)N[C@@H](CCCC)C(=O)N[C@@H](CCC(=O)O)C(=O)N[C@H](C(=O)N[C@@H](CCCNC(=N)N)C(=O)N[C@H](C(=O)N1CCC[C@H]1C(=O)N[C@@H](CC(=O)O)C(=O)N[C@H](C(=O)N[C@@H](CC(N)=O)C(=O)N1CCC[C@H]1C(=O)N[C@@H](C)C(=O)N[C@@H](Cc1c[nH]c2ccccc12)C(=O)N[C@@H](Cc1ccc(O)cc1)C(=O)N[C@H](C(=O)NCC(=O)N[C@@H](CCCNC(=N)N)C(=O)NCC(=O)N[C@H](C(=O)N[C@@H](CCCNC(=N)N)C(=O)N1CCC[C@H]1C(=O)N[C@H](C(=O)NCC(=O)N[C@@H](CCCNC(=N)N)C(=O)N[C@@H](Cc1ccccc1)C(N)=O)C(C)C)[C@@H](C)CC)[C@@H](C)O)[C@@H](C)CC)[C@@H](C)O)[C@@H](C)O [Analog 4] (H-[Dap](Tridecanoyl)RAHQHS[Nle]ETRTPDINPAWYTGRGIRPVGRF-NH2)
food intake (fasted C57BL/6 mice [1]; 45 minutes): 0.07 g
% control (fasted C57BL/6 mice [1]; 45 minutes): 30%
food intake (fasted C57BL/6 mice [1]; 300 minutes): 1.04 g
% control (fasted C57BL/6 mice [1]; 300 minutes): 101%
food intake (fasted C57BL/6 mice [3]; 45 minutes): 0.38 g
% control (fasted C57BL/6 mice [3]; 45 minutes): 71%
food intake (fasted C57BL/6 mice [3]; 300 minutes): 1.4 g
% control (fasted C57BL/6 mice [3]; 300 minutes): 105%
ERK signaling [5]: agonist

Ki [6]: 4.13 nM
B1: analog no. 12 (peptide)
peptide: [Dap](Myristoyl)RTHRHS[Nle]EIRTPDINPAWYASRGIRPVGRF-NH2
modifications: N-terminus assumed
SMILES: CCCCCCCCCCCCCC(=O)NC[C@H](N)C(=O)N[C@@H](CCCNC(=N)N)C(=O)N[C@H](C(=O)N[C@@H](Cc1c[nH]cn1)C(=O)N[C@@H](CCCNC(=N)N)C(=O)N[C@@H](Cc1c[nH]cn1)C(=O)N[C@@H](CO)C(=O)N[C@@H](CCCC)C(=O)N[C@@H](CCC(=O)O)C(=O)N[C@H](C(=O)N[C@@H](CCCNC(=N)N)C(=O)N[C@H](C(=O)N1CCC[C@H]1C(=O)N[C@@H](CC(=O)O)C(=O)N[C@H](C(=O)N[C@@H](CC(N)=O)C(=O)N1CCC[C@H]1C(=O)N[C@@H](C)C(=O)N[C@@H](Cc1c[nH]c2ccccc12)C(=O)N[C@@H](Cc1ccc(O)cc1)C(=O)N[C@@H](C)C(=O)N[C@@H](CO)C(=O)N[C@@H](CCCNC(=N)N)C(=O)NCC(=O)N[C@H](C(=O)N[C@@H](CCCNC(=N)N)C(=O)N1CCC[C@H]1C(=O)N[C@H](C(=O)NCC(=O)N[C@@H](CCCNC(=N)N)C(=O)N[C@@H](Cc1ccccc1)C(N)=O)C(C)C)[C@@H](C)CC)[C@@H](C)CC)[C@@H](C)O)[C@@H](C)CC)[C@@H](C)O
notes: analog of human PrRP31
